The source made the active and inactive calls. The rule behind the calls is not given here.

The IC50 is the point on the concentration scale where inhibition reaches its midpoint. As usually defined, the Kd is the constant that tells how readily two partners part at equilibrium.

The subject of series [1] is AHH-1. In words: Induction of apoptosis in human AHH-1 cells assessed as late apoptotic cells pre-treated with compound for 24 hrs followed by irradiation at 6 Gy and measured after 24 hrs by Annexin V-FITC/PI staining based Flow cytometry analysis (reference value: 2.65%). Type of series: functional. Particulars: time 48 hrs.
The subject of series [2] is AHH-1. In words: Antiradiation activity in human AHH-1 cells assessed as increase in cell viability at 2.5 to 10 micromol/L pre-treated with compound for 24 hrs followed by irradiation at 4 Gy measured after 24 hrs by CCK-8 assay. Type of series: functional, cell-based. The note with it: dose 2.5-10 µmol/L, time 48.0 hrs. (Formazan colour is commonly taken as a measure of viable cells.)

Series [3] has as its system Mus musculus. In words: Radioprotective activity in male C57BL/6J mouse assessed as increase in body weight at 100 to 300 mg/kg, ip pre-treated with compound for 24.25 hrs followed by irradiation at 8.5 Gy and measured on day 18 post irradiation. Type of series: functional, organism-based. Particulars: dose 100-300 mg/kg, time 456.25 hrs.
Series [4] concerns Mus musculus. In words: Radioprotective activity in male C57BL/6J mouse assessed as survival rate at 300 mg/kg, ip pre-treated with compound for 24.25 hrs followed by irradiation at 8.5 Gy and measured for 30 days post irradiation relative to control. It counts as functional. The note with it: time 744.25 hrs.
The test system of series [5] is AHH-1. Briefly: Antiradiation activity in human AHH-1 cells assessed as increase in cell viability at 2.5 to 10 micromol/L pre-treated with compound for 24 hrs followed by irradiation at 8 Gy measured after 24 hrs by CCK-8 assay. It counts as functional, cell-based. The note with it: dose 2.5-10 µmol/L, time 48.0 hrs.
Series [6] relates to AHH-1. Briefly: Induction of apoptosis in human AHH-1 cells assessed as viable cells pre-treated with compound for 24 hrs followed by irradiation at 6 Gy and measured after 24 hrs by Annexin V-FITC/PI staining based Flow cytometry analysis (reference value: 83.6%). It counts as functional. The note with it: time 48 hrs.
Series [7] deals with AHH-1. In words: Induction of apoptosis in human AHH-1 cells assessed as necrotic cells pre-treated with compound for 24 hrs followed by irradiation at 6 Gy and measured after 24 hrs by Annexin V-FITC/PI staining based Flow cytometry analysis (reference value: 5.37%). It counts as functional. The note with it: time 48 hrs.
The nature of series [8]: Cytotoxicity against HUVEC incubated for 24 to 96 hrs by CCK-8 assay. Type of series: toxicity, cell-based. The note with it: human, HUVEC cells.
The test system of series [9] is Mus musculus. In words: Radioprotective activity in male C57BL/6J mouse assessed as increase in cell growth at 250 to 300 mg/kg, ip pre-treated with compound for 24.25 hrs followed by irradiation at 6.5 Gy and measured on 30 day post irradiation. Type of series: functional, organism-based. The note with it: dose 250-300 mg/kg, time 744.25 hrs.
Series [10] has as its system AHH-1. In words: Cytotoxicity against human AHH-1 cells incubated for 24 to 96 hrs by CCK-8 assay. Type of series: functional, cell-based.
In series [11] the test system is AHH-1. Briefly: Induction of apoptosis in human AHH-1 cells assessed as early apoptotic cells pre-treated with compound for 24 hrs followed by irradiation at 6 Gy and measured after 24 hrs by Annexin V-FITC/PI staining based Flow cytometry analysis (reference value: 8.15%). The note with it: time 48 hrs. Type of series: functional.
For series [12], the system named is AHH-1. In words: Antiradiation activity in human AHH-1 cells assessed as increase in cell viability at 2.5 to 10 micromol/L pre-treated with compound for 24 hrs followed by irradiation at 6 Gy measured after 24 hrs by CCK-8 assay. It counts as functional, cell-based. Particulars: dose 2.5-10 µmol/L, time 48.0 hrs.
Series [13] deals with HUVEC. In words: Antiradiation activity in human HUVEC assessed as cell viability at 5 to 20 micromol/L pre-treated with compound for 24 hrs followed by irradiation at 6 Gy measured after 96 hrs by CCK-8 assay. The note with it: dose 5-20 µmol/L, time 120.0 hrs. It counts as functional, cell-based.
The test system of series [14] is AHH-1. In words: Antiradiation activity in human AHH-1 cells assessed as increase in cell viability at 2.5 micromol/L pre-treated with compound for 24 hrs followed by irradiation at 8 Gy measured after 24 hrs by CCK-8 assay. It counts as functional, cell-based. Particulars: dose 2.5 µmol/L, time 48.0 hrs.
The subject of series [15] is Mus musculus. Briefly: Radioprotective activity in male C57BL/6J mouse assessed as increase in body weight at 250 mg/kg, ip pre-treated with compound for 24.25 hrs followed by irradiation at 8.5 Gy and measured on day 1 post irradiation. It counts as functional, organism-based. The note with it: time 48.25 hrs.
Series [16] has as its system Mus musculus. Briefly: Radioprotective activity in male C57BL/6J mouse assessed as time required to increase in platelets at 250 mg/kg, ip pre-treated with compound for 24.25 hrs followed by irradiation at 6.5 Gy and measured on 30 day post irradiation. It counts as functional. Particulars: time 744.25 hrs.
Series [17] has as its system Mus musculus. In words: Radioprotective activity in male C57BL/6J mouse assessed as time required to increase in neutrophil count at 250 mg/kg, ip pre-treated with compound for 24.25 hrs followed by irradiation at 6.5 Gy and measured on 30 day post irradiation. Type of series: functional. Particulars: time 744.25 hrs.
In series [18] the test system is HUVEC. In words: Upregulation of P65 expression in HUVEC incubated for 24 hrs in presence of irradiation by Co-immunoprecipitation analysis. It counts as functional, cell-based. Particulars: Homo sapiens.
Series [19] has as its system Mus musculus. Briefly: Radioprotective activity in male C57BL/6J mouse assessed as increase in crypts villus length in mouse jejunum at 250 mg/kg, ip pre-treated with compound for 24.25 hrs followed by irradiation at 13 Gy and measured on 3.5 day post irradiation. Type of series: functional, organism-based. The note with it: time 108.25 hrs.
Series [20] has as its target T1, Toll-like receptor 2 (Homo sapiens, UniProt O60603). Briefly: Binding affinity to TLR2 (unknown origin) by SPR analysis. Particulars: filed as modulator, dose 312.5-10000 nM. For orientation: Surface plasmon resonance follows binding to a sensor surface in real time, without labels.
In series [21] the test system is Mus musculus. Briefly: Radioprotective activity in male C57BL/6J mouse assessed as attenuation of spleen atrophy at 250 mg/kg, ip pre-treated with compound for 24.25 hrs followed by irradiation at 13 Gy and measured on 3.5 day post irradiation. It counts as functional, organism-based. Particulars: time 108.25 hrs.
Series [22] relates to HUVEC. Briefly: Upregulation of IL-6 secretion in HUVEC at 20 to 80 uM incubated for 24 hrs in presence of irradiation by ELISA. Particulars: Homo sapiens, dose 20-80 µM. It counts as functional, cell-based. Background: An ELISA detects its analyte on a solid surface through an enzyme-linked reagent.
Series [23] has as its system Mus musculus. Briefly: Radioprotective activity in male C57BL/6J mouse assessed as increase in body weight at 250 mg/kg, ip pre-treated with compound for 24.25 hrs followed by irradiation at 8.5 Gy and measured on day 18 post irradiation. Type of series: functional, organism-based. The note with it: time 456.25 hrs.
Series [24] relates to Mus musculus. In words: Radioprotective activity in male C57BL/6J mouse assessed as time required to increase in WBC count at 250 mg/kg, ip pre-treated with compound for 24.25 hrs followed by irradiation at 6.5 Gy and measured on 30 day post irradiation. It counts as functional. Particulars: time 744.25 hrs.
Series [25] concerns Mus musculus. Briefly: Radioprotective activity in male C57BL/6J mouse assessed as survival rate at 250 mg/kg, ip pre-treated with compound for 24.25 hrs followed by irradiation at 8.5 Gy and measured for 30 days post irradiation relative to control. Type of series: functional. Particulars: time 744.25 hrs.
Series [26] has as its system AHH-1. Briefly: Induction of DNA damage repair activity in 6 Gy radiation-induced human AHH-1 cells assessed as downregulation of P53 level pre-treated with compound for 24 hrs followed by irradiation by Co-immunoprecipitation analysis. Type of series: functional, cell-based.
The subject of series [27] is HUVEC. Briefly: Upregulation of MyD88 expression in HUVEC incubated for 24 hrs in presence of irradiation by Co-immunoprecipitation analysis. Type of series: functional, cell-based. The note with it: Homo sapiens.
For series [28], the target named is T1, Toll-like receptor 2. Briefly: Binding affinity to TLR2 (unknown origin) assessed as dissociation constant by SPR analysis.
Series [29] concerns AHH-1. Briefly: Antiradiation activity in human AHH-1 cells assessed as increase in cell viability at 2.5 micromol/L pre-treated with compound for 24 hrs followed by irradiation at 6 Gy measured after 24 hrs by CCK-8 assay. It counts as functional, cell-based. The note with it: dose 2.5 µmol/L, time 48.0 hrs.
Series [30] deals with HUVEC. Briefly: Antiradiation activity in human HUVEC assessed as cell viability at 5 to 20 micromol/L pre-treated with compound for 24 hrs followed by irradiation at 8 Gy measured after 96 hrs by CCK-8 assay. It counts as functional, cell-based. The note with it: dose 5-20 µmol/L, time 120.0 hrs.
Series [31] has as its system AHH-1. Briefly: Radioprotective activity against 6 Gy radiation-induced DNA damage in human AHH-1 cells assessed as attenuation of gamma-H2AX expression incubated for 0.5 to 2 hrs by immunohistochemical staining based confocal fluorescence microscopic analysis. It counts as functional, cell-based. Particulars: time 0.5-2 hrs.
Series [32] deals with AHH-1. In words: Antiradiation activity in human AHH-1 cells assessed as increase in cell viability at 2.5 micromol/L pre-treated with compound for 24 hrs followed by irradiation at 4 Gy measured after 24 hrs by CCK-8 assay. Type of series: functional, cell-based. Particulars: dose 2.5 µmol/L, time 48.0 hrs.
The subject of series [33] is AHH-1. In words: Induction of DNA damage repair activity in 6 Gy radiation-induced human AHH-1 cells assessed as downregulation of Bax level pre-treated with compound for 24 hrs followed by irradiation by Co-immunoprecipitation analysis. It counts as functional, cell-based.
For series [34], the system named is Mus musculus. Briefly: Radioprotective activity in male C57BL/6J mouse assessed as time required to increase in RBC count at 250 mg/kg, ip pre-treated with compound for 24.25 hrs followed by irradiation at 6.5 Gy and measured on 30 day post irradiation. Type of series: functional. Particulars: time 744.25 hrs.

T1 sequence (O60603 whole entry): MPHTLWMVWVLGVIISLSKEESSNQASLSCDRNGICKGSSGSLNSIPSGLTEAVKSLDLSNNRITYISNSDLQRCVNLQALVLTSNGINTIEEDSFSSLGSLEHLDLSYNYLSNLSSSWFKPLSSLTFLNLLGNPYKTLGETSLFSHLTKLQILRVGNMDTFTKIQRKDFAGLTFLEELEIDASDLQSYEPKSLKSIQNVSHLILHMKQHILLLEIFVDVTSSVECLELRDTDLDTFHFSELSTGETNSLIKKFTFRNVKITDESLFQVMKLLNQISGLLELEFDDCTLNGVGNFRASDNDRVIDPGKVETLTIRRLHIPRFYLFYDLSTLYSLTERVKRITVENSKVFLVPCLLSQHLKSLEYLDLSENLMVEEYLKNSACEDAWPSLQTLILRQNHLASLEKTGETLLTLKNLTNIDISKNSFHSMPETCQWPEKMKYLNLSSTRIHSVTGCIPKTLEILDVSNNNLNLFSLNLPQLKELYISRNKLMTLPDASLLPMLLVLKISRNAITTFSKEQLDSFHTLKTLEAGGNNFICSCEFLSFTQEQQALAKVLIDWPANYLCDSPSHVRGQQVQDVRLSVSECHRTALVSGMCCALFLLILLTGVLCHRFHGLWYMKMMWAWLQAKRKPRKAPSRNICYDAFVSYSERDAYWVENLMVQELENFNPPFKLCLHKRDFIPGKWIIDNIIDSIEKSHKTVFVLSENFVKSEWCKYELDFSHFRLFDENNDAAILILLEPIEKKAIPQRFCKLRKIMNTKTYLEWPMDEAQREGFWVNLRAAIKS

For `O=C([O-])c1ccc(/C=C/S(=O)(=O)Cc2ccc(Cl)cc2)cc1.[Na+]` [RECILISIB SODIUM], the Activity with AHH-1 [1] is 8.65%; in the series on Mus musculus [4], 20%; in the series with AHH-1 [6] it was 66.6%; in the series on AHH-1 [7], 5.5%; in the series with AHH-1 [11] it was 19.2%. For the same molecule, the outcome in the series with AHH-1 [2], in the series with Mus musculus [3], with AHH-1 [5], with Mus musculus [9] and with AHH-1 [12] was Active. For the same molecule, the IC50 in series [8] is greater than 60 µM; in the series with AHH-1 [10], 39.6 µM.

`N#Cc1ccc(CS(=O)(=O)c2cnc3ccccc3n2)cc1`: the outcome in the series on HUVEC [13], with AHH-1 [14], in the series with HUVEC [18], in the series on Mus musculus [19], in the series with AHH-1 [2] and with Mus musculus [21] was Active. Further, the result in the series with HUVEC [22], in the series with AHH-1 [26], in the series on HUVEC [27], in the series on AHH-1 [5], with AHH-1 [29] and in the series on HUVEC [30] was Active. Moreover, the outcome in the series on Mus musculus [9], in the series on AHH-1 [31], in the series on AHH-1 [32], in the series on AHH-1 [33] and in the series with AHH-1 [12] was Active. The result with Mus musculus [15] was inactive. Further, the Time in the series with Mus musculus [16] was found to be 14 days; with Mus musculus [17], 14 days; in the series on Mus musculus [24] it was 10 days; in the series with Mus musculus [34] it was 14 days. The Activity was 6.07% in the series on AHH-1 [1]; “Dose-dependent-effect” on Toll-like receptor 2 [20]; “Active; Compound Showed Significant Regaining Effect” with Mus musculus [23]; 100% in the series on Mus musculus [25]; 72% in the series with AHH-1 [6]; 8.81% with AHH-1 [7]. Besides, the Activity with AHH-1 [11] was determined as 13.1%. Moreover, the Kd on Toll-like receptor 2 [28] amounted to 3.93 µM. Also, the IC50 (in series [8]; with AHH-1 [10]) was greater than 60 µM each time.
